Experimental data from patent publication US20220193029A1, “BRYOSTATIN COMPOUNDS FOR ENHANCEMENT OF IMMUNOTHERAPY” (priority 2019, published 2022).

Assays:
PKCδ = molecular target: T1, PKCδ (Homo sapiens, UniProt Q05655); experiment: cell-free competitive PKC binding assay with [3H]-phorbol dibutyrate; details: competition with [3H]-PDBu, recombinant human PKC isoform
T1 construct: purchased Invitrogen
Procedure: (§1) Because a prerequisite for PKC pathway involvement is binding to PKC, compounds were initially evaluated for PKC affinity in a cell-free competitive binding assay with tritiated phorbol dibutyrate ([^3H]-PDBu). Assays were performed with representative members of both the conventional (PKCα) and novel (PKCδ) PKC families. Subsequently, compounds were assayed for PKC activation in living cells using an isoform translocation assay.
To a 50 mL polypropylene tube was added Tris-HCl (pH 7.4, 1 M, 1 mL), KCl (1 M, 2 mL), CaCl2) (0.1 M, 30 μL), and bovine serum albumin (BSA, 40 mg, Sigma-Aldrich). This mixture was diluted to 20 mL with deionized H2O and mixed gently. The buffer was stored on ice until use.
For every two assays, 3.5 mg phosphatidylserine (Avanti Polar Lipids, porcine, 25 mg/mL CHCl3 solution) was concentrated by removing chloroform under a stream of nitrogen followed by reduced pressure. The solid PS was suspended as vesicles in freshly prepared PKC binding assay buffer (3.5 mL) by sonicating six times for 30 sec, with a 30 sec rest between sonications (Branson Sonifier 250, power=2, 50% duty cycle). The resulting milky cloudy mixture (1 mg/mL) was stored on ice until use.
(§2) Assay PKC was prepared by dissolving a 4 μg aliquot of the indicated recombinant human PKC isoform (Invitrogen) into 11.6 mL of PKC binding assay buffer (this amount is sufficient for two assays). The diluted PKC was stored on ice for immediate use.
^3H-PDBu (American Radiolabeled Chemicals, Inc.; 1 mCi/mL acetone solution; specific activity: 20 Ci/mmol) was diluted […] with DMSO. The resulting 500 nM stock solution was further diluted with DMSO to 30 nM.
Compound dilutions were prepared by serially diluting from a chosen “high” concentration by factors of 3 or 4.
To a polypropylene tube was added 3.3 mL of 1 mg/mL PS vesicles solution, 11 mL of PKC isoform solution, and 1.1 mL of 30 nM ^3H-PDBu solution were added. The resulting solution was vortexed to mix and stored on ice.
Materials: • Glass-fiber filters (Whatman GF/B) were prepared by soaking them in a solution of aqueous polyethyleneimine (10% by vol, 18 mL) in deionized water (600 mL) for ≥1 h. • 500 mL “rinsing buffer” of 20 mM Tris, pH 7.4 was cooled on ice for the duration of the incubation period and for the remainder of the assay.
Triplicate data points were obtained for each analog concentration. For each data point, 280 μL of “Master Mix” Solution and 20 μL of analog compound at a specified concentration were added to a polypropylene tube. […] Maximal ^3H-PDBu binding was assessed in triplicate by substitution of the analog compound with 20 μL DMSO. The solutions were vortexed to mix, incubated at 37° C. for 10 min, and incubated on ice for at least 30 min prior to filtration. Using a Brandel Harvester, the assay contents from each polypropylene tube were vacuum-filtered through polyethylenimine-soaked filters, washing with rinsing buffer (3×) and drying first under vacuum for 5 min and then under ambient conditions for ≥2 h. The resulting filters had circular perforations for each data point, which were removed with forceps and placed in a scintillation vial. Scintillation vials were filled with Bio-Safe II scintillation fluid (5 mL) and measured for radioactivity using a Beckman LS 6000SC scintillation counter. Counts per minute (cpm) were averaged for each triplicate dilution. The data were plotted—cpm vs. log(concentration)—using Prism® by GraphPad Software and an IC50 was determined using that program's built-in one-site competition least squares regression function. […] The Kd of ^3H-PDBu for PKC isoforms was measured separately via saturation binding experiments under identical conditions.

PKC = experiment: cell-free PKC binding assay, isoform not given; set-up: species or system human
Procedure: as §1, §2
Triplicate data points were obtained for each analog concentration. For each data point, 280 μL of “Master Mix” Solution and 20 μL of analog compound at a specified concentration were added to a polypropylene tube. […] Maximal ^3H-PDBu binding was assessed in triplicate by substitution of the analog compound with 20 μL DMSO. The solutions were vortexed to mix, incubated at 37° C. for 10 min, and incubated on ice for at least 30 min prior to filtration. Using a Brandel Harvester, the assay contents from each polypropylene tube were vacuum-filtered through polyethylenimine-soaked filters, washing with rinsing buffer (3×) and drying first under vacuum for 5 min and then under ambient conditions for ≥2 h. The resulting filters had circular perforations for each data point, which were removed with forceps and placed in a scintillation vial. Scintillation vials were filled with Bio-Safe II scintillation fluid (5 mL) and measured for radioactivity using a Beckman LS 6000SC scintillation counter. Counts per minute (cpm) were averaged for each triplicate dilution. The data were plotted—cpm vs. log(concentration)—using Prism® by GraphPad Software and an IC50 was determined using that program's built-in one-site competition least squares regression function. Ki values were calculated using the equation: Ki=IC50/(1+([3H−PDBu]/Kd)). The Kd of ^3H-PDBu for PKC isoforms was measured separately via saturation binding experiments under identical conditions.

[1] = test system: CD22 surface expression in NALM6 cells; experiment: CD22 surface expression assay by flow cytometry; type: cell-based, human; details: NALM6 cells; for fold induction at 0.001 µM: Homo sapiens, NALM-6, read-out: Fold increase CD22 expression; for fold induction at 0.001 µM / Fold increase CD22 expression: At 1 nM, relative to DMSO control
Procedure: Cell cultures were maintained between 4×10^5 and 3×10^6 cells/mL according to vendor instructions.
Cell suspension from a confluent T75 flask (Fisher) was transferred to a 15 mL falcon tube and centrifuged at 1100 rpm for 7 minutes. […] Cells were counted using a Countess II Automated Cell Counter (Fisher). […] 199 μL of this stock was added to 24 wells (enough for triplicate measurements for 8 different experimental conditions) in a 96-well plate. […] 1 μL of DMSO or the appropriate stock solution of compound in DMSO was added to each well. Cells were incubated for 24 hours, at which point the cell suspensions were transferred to 1.5 mL Eppendorf tubes and diluted with 1.0 mL of PBS (Hyclone, without Ca^2+ or Mg^2+). Samples were centrifuged at 2000 rpm for 5 min at RT. […] Cells were sub-cultured between 2×10^5 and 3×10^6 cells/mL in 24-well plates for an additional 24 hrs-7 days, at which point CD22 surface expression was assayed by flow cytometry.
Cells from one well were counted using a Countess II Automated Cell Counter (Fisher). ˜200,000-300,000 cells from each well were added to 1.5 mL Eppendorf tubes containing PBS (final volume ˜1.2 mL). The cell suspensions were centrifuged at 1500 rpm for 7 minutes at 4° C. The supernatant was aspirated, and the cell pellet was resuspended in 99 μL of pre-chilled FACS buffer (0.5% w/v BSA in PBS). […] Samples were then diluted with an additional 1.0 mL of FACS buffer and centrifuged at 1500 rpm for 7 minutes at 4° C. […] Cells were stained with DAPI and CD22 surface expression was analyzed using the FACScan Analyzer at the Stanford Shared FACS Facility. Data analysis was performed using FlowJo and Microsoft Excel.

[2] = test system: CD22 surface expression in JB cells; experiment: CD22 surface expression assay, AIDS-NHL cell line JB; details: 1 nM or 10 nM, 48 hours
Procedure: AIDS-NHL cell lines were incubated in IF10 medium, consisting of IMDM medium (Life technologies) containing 10% fetal bovine serum (FBS, Omega Scientific), 100 units/mL of penicillin, and 100 μg/ml of streptomycin (Invitrogen). Cells were incubated at 37° C. in 5% CO2.
Cells were exposed to compound for the either 24 or 48 h before staining and flow cytometric analysis of receptor levels.
Cells in each well were washed with phosphate buffered saline (PBS) containing 2% FBS, then cells were centrifuged for 9 min at 233 xg and resuspended in 50 μL of a 1:1 dilution of phosphate buffered saline (PBS): Human AB serum (Sigma). […] Stained samples were stored at 4° C. Flow cytometry samples were analyzed using a FACSCelesta (BD Biosciences) flow cytometer and data were analyzed using FlowJo software (version 10).
Panel C: JB cells were incubated with 1 nM (left hand bars) or 10 nM (right hand bars) of compound for 48 hours. CD22 surface expression was then assayed by flow cytometry (n=6 biological replicates; data presented as mean values ±SE). Panel D: 2F7 cells were incubated with 1 nM (left hand bars) or 10 nM (right hand bars) of compound for 48 hours. CD22 surface expression was then assayed by flow cytometry (n=6 biological replicates; data presented as mean values ±SE).

T1 sequence (Q05655 whole entry, canonical isoform): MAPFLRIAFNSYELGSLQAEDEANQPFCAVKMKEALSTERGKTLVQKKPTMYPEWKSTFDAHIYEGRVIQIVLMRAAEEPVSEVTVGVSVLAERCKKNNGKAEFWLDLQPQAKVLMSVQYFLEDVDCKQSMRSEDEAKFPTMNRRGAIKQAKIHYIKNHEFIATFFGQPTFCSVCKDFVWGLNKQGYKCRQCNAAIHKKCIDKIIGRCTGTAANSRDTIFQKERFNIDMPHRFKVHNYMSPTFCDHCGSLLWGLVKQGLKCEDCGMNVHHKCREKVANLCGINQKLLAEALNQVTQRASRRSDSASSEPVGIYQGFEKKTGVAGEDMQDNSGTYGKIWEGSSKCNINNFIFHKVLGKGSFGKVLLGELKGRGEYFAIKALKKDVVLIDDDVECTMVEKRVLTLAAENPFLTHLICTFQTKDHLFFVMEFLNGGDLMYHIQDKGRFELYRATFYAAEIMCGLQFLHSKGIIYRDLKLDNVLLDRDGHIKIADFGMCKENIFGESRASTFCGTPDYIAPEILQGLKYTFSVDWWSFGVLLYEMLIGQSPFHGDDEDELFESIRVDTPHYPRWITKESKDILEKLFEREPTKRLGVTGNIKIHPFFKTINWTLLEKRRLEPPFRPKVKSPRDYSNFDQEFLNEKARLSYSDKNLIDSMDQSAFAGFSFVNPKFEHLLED

SMILES | Ki (PKCδ) [nM] | binding affinity to PKC, in words (PKC) | fold induction at 0.001 µM [1] | Fold increase CD22 expression [1] [fold] | activity in the CD22 induction assay, in words ([1]; 1 nM or 10 nM, 24 hours) | upregulated CD22 surface expression [2] [fold]
CCCCCC#CC(=O)O[C@H]1/C(=C/C(=O)OC)C[C@H]2C[C@H]([C@@H](C)O)OC(=O)C[C@H](O)C[C@@H]3C[C@H](OC(C)=O)C(C)(C)[C@](O)(C[C@@H]4C[C@@](O)(CO)C[C@H](/C=C/C(C)(C)[C@]1(O)O2)O4)O3 [SUW203] | 4.1 | single-digit nanomolar affinity | 1.16 | – | – | –
CCC/C=C/C=C/C(=O)O[C@H]1/C(=C/C(=O)OC)C[C@H]2C[C@H]([C@@H](C)O)OC(=O)C[C@H](O)C[C@@H]3C[C@H](OC(C)=O)C(C)(C)[C@](O)(C[C@@H]4C[C@H](OC(C)=O)C[C@H](/C=C/C(C)(C)[C@]1(O)O2)O4)O3 [SUW206] | 1.3 | – | 1.63 | – | – | –
CCC/C=C/C=C/C(=O)O[C@H]1/C(=C/C(=O)OC)C[C@H]2C[C@H]([C@@H](C)O)OC(=O)C[C@H](O)C[C@@H]3C[C@H](OC(C)=O)C(C)(C)[C@](O)(C[C@@H]4C[C@@H](OC(C)=O)C[C@H](/C=C/C(C)(C)[C@]1(O)O2)O4)O3 [SUW207] | 5.4 | – | 1.33 | – | – | –
CCCC=CC=CC(=O)OC1C(=CC(=O)OC)CC2CC(C(C)O)OC(=O)CC(O)CC3CC(OC(C)=O)C(C)(C)C(O)(CC4CC(=CC(=O)OCC)CC(C=CC(C)(C)C1(O)O2)O4)O3 (stereo not shown) [SUW217] | 9.4 | – | – | 1.97 | – | –
CCCC=CC=CC(=O)OC1C(=CC(=O)OC)CC2CC(C(C)O)OC(=O)CC(O)CC3CC(OC(C)=O)C(C)(C)C(O)(CC4CC(=CC(=O)OCC)CC(C=CC(C)(C)C1(O)O2)O4)O3 (stereo not shown) [SUW218] | 6.6 | – | – | 1.92 | – | –
CCCCCCCC(=O)O[C@H]1/C(=C/C(=O)OC)C[C@H]2C[C@H]([C@@H](C)O)OC(=O)C[C@H](O)C[C@@H]3C[C@H](OC(C)=O)C(C)(C)[C@](O)(C[C@@H]4C[C@@H](C)C[C@H](/C=C/C(C)(C)[C@]1(O)O2)O4)O3 [SUW226] | 6.6 | – | 1.76 | – | – | –
C=CCOC(=O)/C=C1/C[C@H]2C[C@]3(O)O[C@H](C[C@@H](O)CC(=O)O[C@@H]([C@@H](C)O)C[C@@H]4C/C(=C\C(=O)OC)[C@H](OC(=O)/C=C/C=C/CCC)[C@@](O)(O4)C(C)(C)/C=C/[C@@H](C1)O2)C[C@H](OC(C)=O)C3(C)C [SUW229] | 1.2 | – | – | – | top performer | ~2
